{"source": "ChEMBL document CHEMBL1145510", "about": "“SCO-1, a novel plasmid-mediated class A beta-lactamase with carbenicillinase characteristics from Escherichia coli” (Antimicrob Agents Chemother, 2007)", "key": {"[1]": {"tested_on": "Escherichia coli", "assay": "Antibacterial activity against Escherichia coli DH5-alpha by agar dilution technique", "type": "functional", "settings": "DH5alpha"}, "[2]": {"tested_on": "Escherichia coli", "assay": "Antibacterial activity against Escherichia coli K12 carrying pR3521 encoding SCO1 by agar dilution technique", "type": "functional"}, "[3]": {"tested_on": "Escherichia coli", "assay": "Antibacterial activity against Escherichia coli DH5-alpha carrying pSCO1 encoding SCO1 by agar dilution technique", "type": "functional", "settings": "DH5alpha"}, "[4]": {"target": "T1, Beta-lactamase SCO-1 (Escherichia coli) (UniProt A1E3K9)", "T1 sequence (whole entry)": "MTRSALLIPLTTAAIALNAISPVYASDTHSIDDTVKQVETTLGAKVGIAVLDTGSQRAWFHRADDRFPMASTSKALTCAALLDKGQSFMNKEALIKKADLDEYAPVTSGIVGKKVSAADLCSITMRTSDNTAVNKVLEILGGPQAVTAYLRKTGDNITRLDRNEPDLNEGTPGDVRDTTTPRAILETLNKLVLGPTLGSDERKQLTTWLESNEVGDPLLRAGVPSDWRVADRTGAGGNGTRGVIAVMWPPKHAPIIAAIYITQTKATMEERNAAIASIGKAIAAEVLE", "assay": "Activity of Escherichia coli beta-lactamase SCO1 relative to penicillin G"}, "[5]": {"tested_on": "Escherichia coli", "assay": "Activity of Escherichia coli K12 beta-lactamase CARB1 relative to penicillin G"}, "[6]": {"target": "Beta-lactamase TEM (Escherichia coli) (UniProt P62593)", "sequence (P62593 whole entry)": "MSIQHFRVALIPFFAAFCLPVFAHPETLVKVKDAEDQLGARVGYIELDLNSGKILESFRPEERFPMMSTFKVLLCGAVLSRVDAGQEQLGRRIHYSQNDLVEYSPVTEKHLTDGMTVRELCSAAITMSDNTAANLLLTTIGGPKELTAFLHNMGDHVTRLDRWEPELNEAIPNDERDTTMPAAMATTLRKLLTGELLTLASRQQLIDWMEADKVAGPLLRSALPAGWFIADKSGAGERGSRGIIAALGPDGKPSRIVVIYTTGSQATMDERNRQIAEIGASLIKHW", "assay": "Activity of Escherichia coli K12 beta-lactamase TEM1 relative to penicillin G"}, "[7]": {"assay": "Inhibition of Escherichia coli K12 CARB1"}, "[8]": {"tested_on": "Escherichia coli", "assay": "Antibacterial activity against Escherichia coli 3521r carrying pR352 encoding SCO1 by agar dilution technique", "type": "functional"}, "[9]": {"target": "Beta-lactamase TEM (Escherichia coli) (UniProt P62593)", "assay": "Inhibition of Escherichia coli TEM1"}}, "data": [{"smiles": "CO/N=C(\\C(=O)N[C@@H]1C(=O)N2C(C(=O)[O-])=C(C[N+]3(C)CCCC3)CS[C@H]12)c1csc(N)n1", "values": [{"measurement": "MIC", "setting": "[1]", "value": "≤ 0.12", "unit": "µg/mL"}, {"measurement": "MIC", "setting": "[2]", "value": 0.25, "unit": "µg/mL"}, {"measurement": "MIC", "setting": "[3]", "value": "≤ 0.12", "unit": "µg/mL"}]}, {"smiles": "CC1(C)S[C@@H]2[C@H](NC(=O)[C@H](N)c3ccccc3)C(=O)N2[C@H]1C(=O)O", "values": [{"measurement": "Activity", "setting": "[4]", "value": 84}]}, {"smiles": "Cc1onc(-c2ccccc2)c1C(=O)N[C@@H]1C(=O)N2[C@@H]1SC(C)(C)[C@@H]2C(=O)O", "values": [{"measurement": "Activity", "setting": "[5]", "value": 12}, {"measurement": "Activity", "setting": "[4]", "value": 4}]}, {"smiles": "O=C(Cc1cccs1)N[C@@H]1C(=O)N2C(C(=O)[O-])=C(C[n+]3ccccc3)CS[C@H]12", "values": [{"measurement": "Activity", "setting": "[5]", "value": 15}, {"measurement": "Activity", "setting": "[4]", "value": 21}, {"measurement": "Activity", "setting": "[6]", "value": 154}]}, {"smiles": "CC1(C)C(C(=O)O)N2C(=O)C[C@H]2S1(=O)=O", "note": "(single isomer, unassigned) [SULBACTAM]", "values": [{"measurement": "IC50", "setting": "[7]", "value": 5000, "unit": "nM"}]}, {"smiles": "CC1(C)S[C@@H]2[C@H](NC(=O)[C@H](N)c3ccc(O)cc3)C(=O)N2[C@H]1C(=O)O", "note": "[AMOXICILLIN]", "values": [{"measurement": "MIC", "setting": "[1]", "value": 4, "unit": "µg/mL"}, {"measurement": "MIC", "setting": "[8]", "value": "≥ 256", "unit": "µg/mL"}, {"measurement": "MIC", "setting": "[2]", "value": "≥ 256", "unit": "µg/mL"}, {"measurement": "MIC", "setting": "[3]", "value": "≥ 256", "unit": "µg/mL"}, {"measurement": "Activity", "setting": "[5]", "value": 100}, {"measurement": "Activity", "setting": "[6]", "value": 108}]}, {"smiles": "C[C@H]1[C@H](NC(=O)/C(=N\\OC(C)(C)C(=O)O)c2csc(N)n2)C(=O)N1S(=O)(=O)O", "note": "[AZTREONAM]", "values": [{"measurement": "MIC", "setting": "[1]", "value": "≤ 0.12", "unit": "µg/mL"}, {"measurement": "MIC", "setting": "[8]", "value": 1, "unit": "µg/mL"}, {"measurement": "MIC", "setting": "[2]", "value": 1, "unit": "µg/mL"}, {"measurement": "MIC", "setting": "[3]", "value": "≤ 0.12", "unit": "µg/mL"}]}, {"smiles": "CC1(C)S[C@@H]2[C@H](NC(=O)C(C(=O)O)c3ccccc3)C(=O)N2[C@H]1C(=O)O", "note": "(some centres undefined) [CARBENICILLIN]", "values": [{"measurement": "MIC", "setting": "[1]", "value": 1, "unit": "µg/mL"}, {"measurement": "MIC", "setting": "[8]", "value": 128, "unit": "µg/mL"}, {"measurement": "MIC", "setting": "[2]", "value": 64, "unit": "µg/mL"}, {"measurement": "MIC", "setting": "[3]", "value": 128, "unit": "µg/mL"}, {"measurement": "Activity", "setting": "[5]", "value": 146}, {"measurement": "Activity", "setting": "[4]", "value": 78}, {"measurement": "Activity", "setting": "[6]", "value": 15}]}, {"smiles": "CO/N=C(\\C(=O)N[C@@H]1C(=O)N2C(C(=O)O)=C(COC(C)=O)CS[C@H]12)c1csc(N)n1", "note": "[CEFOTAXIME]", "values": [{"measurement": "MIC", "setting": "[1]", "value": "≤ 0.12", "unit": "µg/mL"}, {"measurement": "MIC", "setting": "[8]", "value": 8, "unit": "µg/mL"}, {"measurement": "MIC", "setting": "[2]", "value": 4, "unit": "µg/mL"}, {"measurement": "MIC", "setting": "[3]", "value": "≤ 0.12", "unit": "µg/mL"}, {"measurement": "Activity", "setting": "[5]", "value": "< 1"}, {"measurement": "Activity", "setting": "[4]", "value": "< 1"}, {"measurement": "Activity", "setting": "[6]", "value": "< 1"}]}, {"smiles": "CO[C@@]1(NC(=O)Cc2cccs2)C(=O)N2C(C(=O)O)=C(COC(N)=O)CS[C@@H]21", "note": "[CEFOXITIN]", "values": [{"measurement": "MIC", "setting": "[1]", "value": 2, "unit": "µg/mL"}, {"measurement": "MIC", "setting": "[8]", "value": 8, "unit": "µg/mL"}, {"measurement": "MIC", "setting": "[2]", "value": 8, "unit": "µg/mL"}, {"measurement": "MIC", "setting": "[3]", "value": 2, "unit": "µg/mL"}]}, {"smiles": "CC(C)(O/N=C(\\C(=O)N[C@@H]1C(=O)N2C(C(=O)[O-])=C(C[n+]3ccccc3)CS[C@H]12)c1csc(N)n1)C(=O)O", "note": "[CEFTAZIDIME]", "values": [{"measurement": "MIC", "setting": "[1]", "value": "≤ 0.12", "unit": "µg/mL"}, {"measurement": "MIC", "setting": "[8]", "value": 32, "unit": "µg/mL"}, {"measurement": "MIC", "setting": "[2]", "value": 32, "unit": "µg/mL"}, {"measurement": "MIC", "setting": "[3]", "value": "≤ 0.12", "unit": "µg/mL"}, {"measurement": "Activity", "setting": "[5]", "value": "< 1"}, {"measurement": "Activity", "setting": "[4]", "value": "< 1"}, {"measurement": "Activity", "setting": "[6]", "value": "< 1"}]}, {"smiles": "CO/N=C(\\C(=O)N[C@@H]1C(=O)N2C(C(=O)O)=C(COC(N)=O)CS[C@H]12)c1ccco1", "note": "[CEFUROXIME]", "values": [{"measurement": "MIC", "setting": "[1]", "value": 1, "unit": "µg/mL"}, {"measurement": "MIC", "setting": "[8]", "value": 32, "unit": "µg/mL"}, {"measurement": "MIC", "setting": "[2]", "value": 32, "unit": "µg/mL"}, {"measurement": "MIC", "setting": "[3]", "value": 1, "unit": "µg/mL"}]}, {"smiles": "CC(=O)OCC1=C(C(=O)O)N2C(=O)[C@@H](NC(=O)Cc3cccs3)[C@H]2SC1", "note": "[CEPHALOTHIN]", "values": [{"measurement": "MIC", "setting": "[1]", "value": 2, "unit": "µg/mL"}, {"measurement": "MIC", "setting": "[8]", "value": "≥ 256", "unit": "µg/mL"}, {"measurement": "MIC", "setting": "[2]", "value": "≥ 256", "unit": "µg/mL"}, {"measurement": "MIC", "setting": "[3]", "value": 8, "unit": "µg/mL"}, {"measurement": "Activity", "setting": "[5]", "value": 6}, {"measurement": "Activity", "setting": "[4]", "value": 3}, {"measurement": "Activity", "setting": "[6]", "value": 27}]}, {"smiles": "O=C(O)[C@H]1/C(=C/CO)O[C@@H]2CC(=O)N21", "note": "[CLAVULANIC ACID]", "values": [{"measurement": "IC50", "setting": "[7]", "value": 100, "unit": "nM"}, {"measurement": "Activity", "setting": "[9]", "value": 3, "unit": "µM"}]}, {"smiles": "C[C@@H](O)[C@H]1C(=O)N2C(C(=O)O)=C(SCCNC=N)C[C@H]12", "note": "[IMIPENEM ANHYDROUS]", "values": [{"measurement": "MIC", "setting": "[1]", "value": "≤ 0.12", "unit": "µg/mL"}, {"measurement": "MIC", "setting": "[3]", "value": "≤ 0.12", "unit": "µg/mL"}]}, {"smiles": "CCN1CCN(C(=O)N[C@@H](C(=O)N[C@@H]2C(=O)N3[C@@H]2SC(C)(C)[C@@H]3C(=O)O)c2ccccc2)C(=O)C1=O", "note": "[PIPERACILLIN]", "values": [{"measurement": "MIC", "setting": "[1]", "value": 2, "unit": "µg/mL"}, {"measurement": "MIC", "setting": "[8]", "value": 128, "unit": "µg/mL"}, {"measurement": "MIC", "setting": "[2]", "value": 64, "unit": "µg/mL"}, {"measurement": "MIC", "setting": "[3]", "value": 32, "unit": "µg/mL"}]}, {"smiles": "C[C@]1(Cn2ccnn2)[C@H](C(=O)O)N2C(=O)C[C@H]2S1(=O)=O", "note": "[TAZOBACTAM]", "values": [{"measurement": "IC50", "setting": "[7]", "value": 80, "unit": "nM"}]}, {"smiles": "CC1(C)S[C@@H]2[C@H](NC(=O)[C@H](C(=O)O)c3ccsc3)C(=O)N2[C@H]1C(=O)O", "note": "[TICARCILLIN]", "values": [{"measurement": "MIC", "setting": "[1]", "value": 2, "unit": "µg/mL"}, {"measurement": "MIC", "setting": "[8]", "value": "≥ 256", "unit": "µg/mL"}, {"measurement": "MIC", "setting": "[2]", "value": "≥ 256", "unit": "µg/mL"}, {"measurement": "MIC", "setting": "[3]", "value": "≥ 256", "unit": "µg/mL"}]}]}
